The data set can be described thus: solubility (general statement). It is filed as physicochemical. The following applies: with respect to pharmaceutical production.

For `C=C1[C@H](n2ccc(N)nc2=O)O[C@H](CO)[C@H]1O` [2'-deoxy-2'-methylidenecytidine], the solubility entry is “inferior in solubility”.

The values above are taken from patent US5705630A, “2'-methylidenepyrimidine nucleoside compounds” (Yoshitomi Pharmaceutical Industries, Ltd., priority 1988, dated 1998).
